5 compounds from patent US6407067B1, “Salts of thrombin inhibitors” (BASF Aktiengesellschaft, priority 1999, dated 2002) can be followed below.

A short description of series [1]: Crystallinity assessed by Debye-Scherrer photographs. Particulars: isolated solid. Format: physicochemical. The text has this:
The crystallinity of the samples has been assessed on the basis of Debye-Scherrer photographs.

A short description of series [2]: Stability test (storage at 70° C., 1 bar, content by HPLC). In kind it is physicochemical. The method, then:
The thermal decomposition of the compounds of the general formula I and II has been investigated in a stability test. […]
The substances were stored at 70° C., 1 bar. Measurements were in HPLC % areas

On to “N-((Hydroxycarbonyl)methylene)-(R)-cyclohexylalanyl-(S)-3,4-dehydroproline 6-Amidino-3-picolinylamide (Betaine) [1st Example]”, for which the “Debye-Scherrer photograph (crystallinity)” value (from here on “Debye-Scherrer photograph”) in series [1] was “amorphous”.
In the case of `N=C(N)c1ccc(CNC(=O)[C@@H]2C=CCN2C(=O)[C@@H](CC2CCCCC2)NCC(=O)O)cn1.O=C1NS(=O)(=O)c2ccccc21` [Saccharin salt, N-((Hydroxycarbonyl)methylene)-(R)-cyclohexylalanyl-(S)-3,4-dehydroproline 6-Amidino-3-picolinylamide Saccharinate], the “Stability on storage in an open vessel (relative content by HPLC)” value (“Stability … (relative content by HPLC)” below) in series [2] (0 days) is given as 100 HPLC % areas; in series [2] (7 days) it was 100 HPLC % areas; in series [2] (14 days), 101 HPLC % areas. For the same compound, the “Debye-Scherrer photograph” value in series [1] is “crystalline”.
In the case of `N=C(N)c1ccc(CNC(=O)[C@@H]2C=CCN2C(=O)[C@@H](CC2CCCCC2)NCC(=O)O)cn1.O=C(O)/C=C/C(=O)O` [Fumarate, N-((hydroxycarbonyl)methylene)-(R)-cyclohexylalanyl-(S)-3,4-dehydroproline 6-Amidino-3-picolinylamide Fumarate], the “Stability … (relative content by HPLC)” value in series [2] (0 days) was 100 HPLC % areas; in series [2] (7 days), 87.9 HPLC % areas; in series [2] (14 days) it was 87.1 HPLC % areas. In series [1], the “Debye-Scherrer photograph” value was “amorphous”.
Consider `CC(=O)O.N=C(N)c1ccc(CNC(=O)[C@@H]2C=CCN2C(=O)[C@@H](CC2CCCCC2)NCC(=O)O)cn1` [Acetate, N-((Hydroxycarbonyl)methylene)-(R)-cyclohexylalanyl-(S)-3,4-d ehydroproline 6-Amidino-3-picolinylamide Acetate], for which the “Stability … (relative content by HPLC)” value was found to be 100 HPLC % areas in series [2] (0 days), 92.6 HPLC % areas in series [2] (7 days) and 87.2 HPLC % areas in series [2] (14 days). In addition, in series [1], the “Debye-Scherrer photograph” value is listed as “amorphous”.
Consider `CC1=CC(=O)NS(=O)(=O)O1.N=C(N)c1ccc(CNC(=O)[C@@H]2C=CCN2C(=O)[C@@H](CC2CCCCC2)NCC(=O)O)cn1` [Acesulfame salt, N-((Hydroxycarbonyl)methylene)-(R)-cyclohexylalanyl-(S)-3,4-dehydroproline 6-Amidino-3-picolinylamide Acesulfamate], for which the “Stability … (relative content by HPLC)” value in series [2] (0 days) was 100 HPLC % areas; in series [2] (7 days) it was 96,7 HPLC % areas; in series [2] (14 days), 88,4 HPLC % areas. Further, the “Debye-Scherrer photograph” value in series [1] is on record as “crystalline”.
